For 4 molecules, Activity results are on record in ChEMBL document CHEMBL1240302, “Small-molecule interaction with a five-guanine-tract G-quadruplex structure from the human MYC promoter” (Nat Chem Biol, 2005).

The structures appear in SMILES notation. Active and inactive are the calls of the source. No cut-off for these calls is given here.

For the test, the system named is Nucleic Acid. Briefly: Binding affinity to human c-MYC Pu24I G-quadruplex structure assessed as stabilization of G-quadruplex by NMR spectroscopy. It counts as nucleic-acid assay.
Turning to `C[n+]1ccc(-c2c3nc(c(-c4cc[n+](C)cc4)c4ccc([nH]4)c(-c4cc[n+](C)cc4)c4ccc([nH]4)c(-c4cc[n+](C)cc4)c4nc2C=C4)C=C3)cc1`, the outcome was Active.

On to `COc1cccc2c1C(=O)c1c(O)c3c(c(O)c1C2=O)C[C@@](O)(C(C)=O)C[C@@H]3O[C@H]1C[C@H](N)[C@H](O)[C@H](C)O1`, for which the outcome was Active.

For `CN1CCN(c2ccc3[nH]c(-c4ccc5[nH]c(-c6ccc(O)cc6)nc5c4)nc3c2)CC1`, the outcome was Active.

As to `CC[n+]1c(-c2ccccc2)c2cc(N)ccc2c2ccc(N)cc21`, the outcome was Active.
